Experimental data as given in US20090209460A1, “COMPOSITIONS AND METHODS FOR TREATING OBESITY AND RELATED METABOLIC DISORDERS” (Amylin Pharmaceuticals, Inc., priority 2005, published 2009).
Non-standard residues stand in square brackets, D forms with d. Residues, ends and D or L forms follow the SMILES beside them. No end group written: not given here. beta turn mimic B = not defined here

Legend:
[1] = system: mice with diet induced obesity (mouse DIO); test: cumulative food intake in mouse DIO after IP injection (FIGS. 6 and 7); format: in vivo; details: injected IP at t=0; measured at 30, 60, 120 and 180 min
Experimental: The activities of the following compounds are shown: A, [MimicB36] FN38; B, [His37] FN38; C,
[His35] FN38; D, [Phe33] FN38; E, [Val33] FN38; F, Des-(Ser6,Lys7,Thr8,Gln9) FN38; G, Des-Val16,Val17-FN38; H, [Phe31] FN38; I, Des-(Val16,Val17,Phe24,Ala25,Ser26,Gln27) FN38; J, Des-(Phe1,Leu2,Phe3,His4)FN38; and K, Des-(Phe24,Ala25,Ser26,Gln27)-FN38. […] Points represent mean±sd of n=4 cages (3 mice/cage). Peptide was injected IP at t=0. Food was introduced immediately after injection and amount consumed measured at t=30, 60, 120, and 180 min. In the figure, * p<0.05 vs. vehicle control; ANOVA, Dunnett's test.

NIH/Swiss mice = test: acute food intake assay, lean overnight-fasted NIH/Swiss mice, intraperitoneal injection; format: in vivo, mouse; details: for Food Intake Inhibition: mouse assay, dose of 200 mg/kg, measured at 60 minutes
Experimental: The effect of NMX Peptides, FNX Peptides or NMX Receptor agonists on food intake when systemically administered was investigated using an acute food intake assay. This assay measured food consumption in lean subjects. Lean, group-housed, overnight-fasted NIH/Swiss mice. All in vivo tests were performed with peripheral injections of peptide. […] The dose-response data are presented herein. The protocol is described below. Female NIH/Swiss mice (8-24 weeks old) were group housed with a 12:12 hour light:dark cycle, with lights on at 0300. Water and a standard pelleted mouse chow diet are available ad libitum, except as noted. Animals are fasted starting at approximately 1530 hrs, 1 day prior to experiment. At time=0 min, all animals are given an intraperitoneal injection of vehicle or polypeptide in a volume of 200 uL/mouse and immediately given a pre-weighed amount (10-15 g) of the standard chow. Food is removed and weighed at 30, 60, and 120 minutes to determine the amount of food consumed. The effects of treatment on food intake are expressed as % change relative to control.

[2] = brush border membrane (BBM) stability assay; format: in vitro ADME, human; details: for remaining at 5 h: brush border membrane extract (e.g. kidney), percent compound remaining after a 5 hour incubation, human brush border membrane assay, read-out: hBBM
Experimental: Some exemplary NMX Peptides and FNX Peptides were tested for stability in a brush border membrane (BBM) assay as described herein. To determine the enzymatic stability of peptide hormones peptides are incubated with a preparation of human brush border membranes extract (e.g., kidney), and the stability of the peptide is determined by measuring concentration of the intact peptide at specific intervals. The brush border membrane extract contains dipeptidyl peptidase IV (DPP-IV), neutral endopeptidases, peptidyl-dipeptidase A, carboxypeptidases and aminopeptidases. These are the primary enzymes that degrade peptides in vivo and are found in the kidneys, liver, lungs and pancreas. Resistance against these human proteases would increase peptide half-life. In the BBM assay test peptide was subjected to digestion over a period of five (5) hours with human brush border membrane extracts, e.g. kidney, at 37° C. At desired timepoints digestion was stopped by addition of quench solution, typically 50% ACN, 1% FA. After centrifugation to remove membrane debris, supernatant was subjected to mass spectrometry using a selected ion scan for the intact molecule of interest. Values are expressed as a percent of stable. A value of at least 80 or greater is regarded as an extremely stable molecule. A value of at least 70 or greater is a molecule with significant stability.

[3] = body weight and food intake in mice with diet induced obesity (mouse DIO), osmotic pump; format: in vivo; details: mouse DIO
Experimental: The effect of FN38 and related compounds on body weight and food intake in obese subjects was investigated. Mice having diet induced obesity (DIO) were used. All in vivo tests were performed with peripheral injections of peptide. […] 4-week-old male C57BL/6 mice were group housed with water and a standard pelleted mouse chow diet available ad libitum, except as noted, and were maintained on a on a high fat diet (58% kcal from fat) for 4 weeks prior to the experiment. At the end of fattening period, osmotic pumps were implanted interscapularly under anesthesia. Mice received pumps continuously delivering vehicle (50% DMSO in water or saline) or polypeptide at the dose indicated. Food intake and body weight measurements were obtained weekly.

Molecule	cumulative food intake in mouse DIO (FIGS. 6A, 6B, 7A, 7B) [1]	Food Intake Inhibition (NIH/Swiss mice)	remaining at 5 h [2]	further results
CC(C)C[C@H](NC(=O)[C@H](CCCCN)NC(=O)[C@H](CCC(N)=O)NC(=O)[C@@H](NC(=O)[C@H](CCCCN)NC(=O)[C@H](CO)NC(=O)[C@H](Cc1ccc(O)cc1)NC(=O)[C@H](Cc1c[nH]cn1)NC(=O)[C@H](Cc1ccccc1)NC(=O)[C@H](CC(C)C)NC(=O)[C@@H](N)Cc1ccccc1)[C@@H](C)O)C(=O)NCC(=O)N[C@@H](CCCCN)C(=O)N[C@@H](CO)C(=O)N[C@@H](CC(N)=O)C(=O)N[C@H](C(=O)N[C@H](C(=O)N[C@@H](CCC(=O)O)C(=O)N[C@@H](CCC(=O)O)C(=O)N[C@@H](CC(C)C)C(=O)N[C@@H](CCC(N)=O)C(=O)N[C@@H](CO)C(=O)N1CCC[C@H]1C(=O)N[C@@H](Cc1ccccc1)C(=O)N[C@@H](C)C(=O)N[C@@H](CO)C(=O)N[C@@H](CCC(N)=O)C(=O)N[C@@H](CO)C(=O)N[C@@H](CCCNC(=N)N)C(=O)NCC(=O)N[C@@H](Cc1ccc(O)cc1)C(=O)N[C@@H](Cc1ccccc1)C(=O)N[C@@H](CC(C)C)C(=O)N[C@@H](Cc1ccccc1)C(=O)N[C@@H](CCCNC(=N)N)C(=O)N1CCC[C@H]1C(=O)N[C@@H](Cc1c[nH]cn1)C(=O)N[C@@H](CC(N)=O)C(N)=O)C(C)C)C(C)C [Compound B] (H-FLFHYSKTQKLGKSNVVEELQSPFASQSRGYFLFRPHN-NH2; N-terminus assumed)	either not active or weakly active			
CC[C@H](C)[C@H](NC(=O)[C@@H](NC(=O)CNC(=O)CNC(=O)[C@@H]1CCCN1C(=O)[C@@H](NC(=O)[C@H](CCC(N)=O)NC(=O)[C@@H](NC(=O)[C@H](CCC(=O)O)NC(=O)[C@H](CCC(=O)O)NC(=O)[C@H](CC(=O)O)NC(=O)[C@H](CO)NC(=O)[C@H](CC(N)=O)NC(=O)[C@H](CO)NC(=O)[C@H](CCCCN)NC(=O)CNC(=O)[C@H](CC(C)C)NC(=O)[C@H](CCCCN)NC(=O)[C@H](CCC(N)=O)NC(=O)[C@@H](NC(=O)[C@H](CCCCN)NC(=O)[C@H](CO)NC(=O)[C@H](Cc1ccc(O)cc1)NC(=O)[C@H](Cc1c[nH]cn1)NC(=O)[C@H](Cc1ccccc1)NC(=O)[C@H](CC(C)C)NC(=O)[C@@H](N)Cc1ccccc1)[C@@H](C)O)C(C)C)C(C)C)C(C)C)C(=O)N[C@@H](CO)C(=O)N[C@@H](CC(N)=O)C(=O)NCC(=O)N[C@@H](Cc1ccc(O)cc1)C(=O)N[C@@H](Cc1ccccc1)C(=O)N[C@@H](CC(C)C)C(=O)N[C@@H](Cc1ccccc1)C(=O)N[C@@H](CCCNC(=N)N)C(=O)N1CCC[C@H]1C(=O)N[C@@H](CCCNC(=N)N)C(=O)N[C@@H](CC(N)=O)C(N)=O [Compound 165063] (H-FLFHYSKTQKLGKSNSDEEVQVPGGVISNGYFLFRPRN-NH2; N-terminus assumed)		−88%	73%	reduction of food intake (NIH/Swiss mice; administered systemically (i.p. to mice), dose and time not stated): at least 89%; FI (60′, 200) (NIH/Swiss mice; food intake, % change relative to control, 60 min, dose 200): −88%; ED50 at t = 60 (NIH/Swiss mice; food intake, t = 60): 6 nmol/kg; BBM ([2]; percent of stable, human brush border membrane extracts, five hours, 37° C.): 73%; d 7 BWt loss ([3]; day 7): 5.1%; d 14 BWt loss ([3]; day 14): 8.6%
CC(C)C[C@H](NC(=O)[C@H](Cc1ccccc1)NC(=O)[C@H](Cc1ccc(O)cc1)NC(=O)CNC(=O)[C@H](CCCNC(=N)N)NC(=O)[C@H](CO)NC(=O)[C@H](CCC(N)=O)NC(=O)[C@H](CO)NC(=O)[C@H](C)NC(=O)[C@H](Cc1ccccc1)NC(=O)[C@H](CO)NC(=O)[C@H](Cc1ccc(O)cc1)NC(=O)[C@H](Cc1c[nH]cn1)NC(=O)[C@H](Cc1ccccc1)NC(=O)[C@H](CC(C)C)NC(=O)[C@@H](N)Cc1ccccc1)C(=O)N[C@@H](Cc1ccccc1)C(=O)N[C@@H](CCCNC(=N)N)C(=O)N1CCC[C@H]1C(=O)N[C@@H](CCCNC(=N)N)C(=O)N[C@@H](CC(N)=O)C(N)=O [Des-(Lys7-Pro23)FN38] (H-FLFHYSFASQSRGYFLFRPRN-NH2; N-terminus assumed)	reduction of cumulative food intake	−26%	95%	
CC(C)C[C@H](NC(=O)[C@H](CCCCN)NC(=O)[C@H](CCC(N)=O)NC(=O)[C@@H](NC(=O)[C@H](CCCCN)NC(=O)[C@H](CO)NC(=O)[C@H](Cc1ccc(O)cc1)NC(=O)[C@H](Cc1c[nH]cn1)NC(=O)[C@H](Cc1ccccc1)NC(=O)[C@H](CC(C)C)NC(=O)[C@@H](N)Cc1ccccc1)[C@@H](C)O)C(=O)NCC(=O)N[C@@H](CCCCN)C(=O)N[C@@H](CO)C(=O)N[C@@H](CC(N)=O)C(=O)N[C@@H](CCC(=O)O)C(=O)N[C@@H](CCC(=O)O)C(=O)N[C@@H](CC(C)C)C(=O)N[C@@H](CCC(N)=O)C(=O)N[C@@H](CO)C(=O)N1CCC[C@H]1C(=O)N[C@@H](CO)C(=O)N[C@@H](CCCNC(=N)N)C(=O)NCC(=O)N[C@@H](Cc1ccc(O)cc1)C(=O)N[C@@H](Cc1ccccc1)C(=O)N[C@@H](CC(C)C)C(=O)N[C@@H](Cc1ccccc1)C(=O)N[C@@H](CCCCN)C(=O)N1CCC[C@H]1C(=O)N[C@@H](CCCNC(=N)N)C(=O)N[C@@H](CC(N)=O)C(N)=O [Des-(Val16,Val17,Phe24-Gln27)[K35]FN38] (H-FLFHYSKTQKLGKSNEELQSPSRGYFLFKPRN-NH2; N-terminus assumed)	reduction of cumulative food intake	−54%	76%	
CC(C)C[C@H](NC(=O)[C@H](CCCCN)NC(=O)[C@H](CCC(N)=O)NC(=O)[C@@H](NC(=O)[C@H](CCCCN)NC(=O)[C@H](CO)NC(=O)[C@H](Cc1ccc(O)cc1)NC(=O)[C@H](Cc1c[nH]cn1)NC(=O)[C@H](Cc1ccccc1)NC(=O)[C@H](CC(C)C)NC(=O)[C@@H](N)Cc1ccccc1)[C@@H](C)O)C(=O)NCC(=O)N[C@@H](CCCCN)C(=O)N[C@@H](CO)C(=O)N[C@@H](CC(N)=O)C(=O)N[C@H](C(=O)N[C@H](C(=O)N[C@@H](CCC(=O)O)C(=O)N[C@@H](CCC(=O)O)C(=O)N[C@@H](CC(C)C)C(=O)N[C@@H](CCC(N)=O)C(=O)N[C@@H](CO)C(=O)N1CCC[C@H]1C(=O)N[C@@H](Cc1ccccc1)C(=O)N[C@@H](C)C(=O)N[C@@H](CO)C(=O)N[C@@H](CCC(N)=O)C(=O)N[C@@H](CO)C(=O)N[C@@H](CCCNC(=N)N)C(=O)NCC(=O)N[C@@H](Cc1ccc(O)cc1)C(=O)N[C@@H](Cc1ccccc1)C(=O)N[C@@H](CC(C)C)C(=O)N[C@@H](Cc1ccccc1)C(=O)N[C@@H](Cc1c[nH]cn1)C(=O)N1CCC[C@H]1C(=O)N[C@@H](CCCNC(=N)N)C(=O)N[C@@H](CC(N)=O)C(N)=O)C(C)C)C(C)C [Compound C] (H-FLFHYSKTQKLGKSNVVEELQSPFASQSRGYFLFHPRN-NH2; N-terminus assumed)	either not active or weakly active			
FLFHYSKTQKLGKSNVVEELQSPFASQSRGYFLFR(beta turn mimic B)RN-NH2 (FLFHYSKTQKLGKSNVVEELQSPFASQSRGYFLFR[beta turn mimic B]RN-NH2; reading uncertain) [Compound A]	either not active or weakly active			
